These results are taken from patent US12391641B2, “Prostaglandin EP4 receptor antagonist compounds” (NXERA PHARMA UK LIMITED, priority 2019, dated 2025).

The target of the test is T1, Human prostaglandin E2 receptor 4 (EP4) (Homo sapiens, UniProt P35408).
T1 construct: expressed in transfected cells; host or cells: HEK293 cells transduced with EP4 BacMam virus
T1 sequence (P35408 whole entry): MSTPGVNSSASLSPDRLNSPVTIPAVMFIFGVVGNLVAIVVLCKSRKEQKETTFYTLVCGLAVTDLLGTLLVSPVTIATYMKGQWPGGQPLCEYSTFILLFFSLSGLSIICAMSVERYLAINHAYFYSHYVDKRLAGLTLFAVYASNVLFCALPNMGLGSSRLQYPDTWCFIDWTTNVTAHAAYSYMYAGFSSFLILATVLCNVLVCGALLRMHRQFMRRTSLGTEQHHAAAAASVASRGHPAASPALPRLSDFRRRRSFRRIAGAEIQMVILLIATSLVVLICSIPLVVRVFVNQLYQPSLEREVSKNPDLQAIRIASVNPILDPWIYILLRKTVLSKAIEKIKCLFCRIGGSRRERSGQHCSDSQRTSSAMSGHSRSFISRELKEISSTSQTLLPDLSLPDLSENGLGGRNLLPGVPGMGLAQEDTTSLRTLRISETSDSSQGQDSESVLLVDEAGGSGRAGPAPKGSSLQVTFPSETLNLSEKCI
Description: cAMP Gs Functional Assay (HTRF cAMP dynamic-2), antagonism of PGE2. The following applies: HEK293 cells transfected with EP4 BacMam virus; PGE2 challenge at EC80 (7 nM); pIC50 converted to functional pKb with a modified Cheng Prussoff equation; read-out: Human EP4 fpKb (converted). It is filed as cell-based. How it is done: Cloning, Baculovirus generation, large scale infection of HEK293 cells and membrane preparation: Human prostaglandin E2 receptor 4 (EP4) was cloned into pBacMam expression vector (GeneScript, UK). Transposition of EP4 DNA was performed using Invitrogen's Bac-to-Bac Baculovirus Expression Systems. P0 baculovirus was generated by transfecting SF9 Cells with bacmid DNA using Cellfectin II transfection reagent (ThermoFisher Scientific, UK, catalog number 10362-100). Following P0 generation P1 virus was then generated ready for large scale infection and membrane preparation. HEK293 cells were grown in DMEM+Glutamax, supplemented with 10% heat inactivated fetal bovine serum (FBS). Cells were infected at a seeding density of 3.5 million cells/mL in 500 cm^3 flasks at 5% v/v EP4 Bacman. Expression was carried out over 36 hr period at 37° C. with 5% CO2. The cells were removed using PBS and a cell scrapper. The cell culture was centrifuged at 2500 RPM for 10 mins at 4° C. The supernatant was then poured off and the pellet stored at −80° C. The pellet was defrosted and re-suspended in 15 mL of homogenising buffer (20 mM HEPES, 10 mM EDTA, pH 7.4). Then homogenised in mechanical homogeniser (VMR) for 10 seconds. The membrane was centrifuged in centrifuge tubes at 40,000 g for 15 mins at 4° C. The supernatant was poured away and re-suspended in 15 mL of homogenising buffer. Homogenised for 20 seconds. The membrane was centrifuged at 40,000 g for 45 mins at 4° C. The membrane was re-suspended in 3 mL of storage buffer (20 mM HEPES, 0.1 mM EDTA, pH 7.4) mixing well. The resulting membranes were then stored at −80° C.
cAMP Gs Functional Assay: cAMP production following EP4 receptor activation was determined using the Homogeneous Time-Resolved Fluorescence (HTRF) cAMP dynamic-2 assay (Cisbio, France). HEK293 cells were transfected using a 0.5% EP4 Bacman virus for 36 hours, before dissociating the cells, and freezing at […].
On the day of testing, increasing concentration of test compounds, alongside positive controls (1 uM ONO-AE3-208) and negative control (DMSO (Sigma-Aldrich, UK) were added to a ProxiPlate-384 Plus, White 384-shallow well Mircoplate, (PerkinElmer, USA) using the ECHO dispense.
Cells were defrosted in a water bath and resuspended in DMEM supplemented with 10% FBS before centrifuging at 1200 RPM for 5 mins to form a pellet. The pellet was resuspended in assay buffer (DMEM+0.5 mM IBMX (Tocris, Abingdon, UK, Catalog Number 2845)) to a 1×10^6 cells/mL. Cell suspension, for a final assay concentration of 5000 cell/well was added using the multidrop to the pre-dispensed assay plate. The plate was then incubated at 37° C. for 30 mins, with 5% CO2. After incubation, EC80 concentration (7 nM) of PGE2 (EP4 agonist) was added to the plate. In parallel, a PGE2 dose-response curve was dispense to a separate plate. Assay buffer was then dispensed on top. The cAMP production was determined as manufacturer's instructions, before plates were read on a PheraStar fluorescence plate reader (BMG LabTech, Germany).
The pIC50 was converted to a functional pKb value using a modified Cheng Prussoff equation where Kd=agonist EC50 and Lhot=agonist challenge concentration;
On the technique in general: Time-resolved FRET reads energy transfer from a long-lived donor to a nearby acceptor.
On to `CC(C)[C@@H](OCc1ccc(C#N)cc1)C(=O)N[C@@H](C)c1ccc(C(=O)O)cc1` [Example 21, 4-((S)-1-((R)-2-((4-cyanobenzyl)oxy)-3-methylbutanamido)ethyl)benzoic acid], for which the Ki was 33.1 nM. To `COCc1cccc(CO[C@@H](C(=O)N[C@@H](C)c2ccc(C(=O)O)cc2)C(C)C)c1` [Example 40, 4-((S)-1-((R)-2-((3-(methoxymethyl)benzyl)oxy)-3-methylbutanamido)ethyl)benzoic acid] belongs 1.66 nM; to `CC(C)[C@@H](OCc1cccc(S(C)(=O)=O)c1)C(=O)NC1(c2ccc(C(=O)O)cc2)CC1` [Example 33, (R)-4-(1-(3-methyl-2-((3-(methylsulfonyl)benzyl)oxy)butanamido)cyclopropyl)benzoic acid], 14.5 nM. Take `CC(C)C(OCc1cccc(C2COC2)c1)C(=O)N[C@@H](C)c1ccc(C(=O)O)cc1` (single isomer, unassigned) [Example 49]: the Ki was 2.29 nM. To `CC(C)[C@@H](OCc1ccc(C(F)(F)F)cc1)C(=O)NC(C)(C)c1ccc(C(=O)O)cc1` [Example 64, (R)-4-(2-(3-methyl-2-((4-(trifluoromethyl)benzyl)oxy)butanamido)propan-2-yl)benzoic acid] belongs 47.9 nM; to `COc1ccc(COC(C(=O)N[C@@H](C)c2ccc(C(=O)O)cc2)C(C)C)cc1` (mixture of isomers) [Example 6, 4-((1S)-1-(2-((4-methoxybenzyl)oxy)-3-methylbutanamido)ethyl)benzoic acid], 28.2 nM. To `CC(C)[C@@H](OCc1ccc(C(F)F)cn1)C(=O)NC1(c2ccc(C(=O)O)cc2)CC1` [Example 88, (R)-4-(1-(2-((5-(difluoromethyl)pyridin-2-yl)methoxy)-3-methylbutanamido)cyclopropyl)benzoic acid] belongs 11.7 nM. The same measure for `CC(C)[C@H](OCc1ccc(C(F)(F)F)cc1)C(=O)N[C@@H](C)c1ccc(C(=O)O)cc1` [Example 16, 4-((S)-1-((S)-3-methyl-2-((4-(trifluoromethyl)benzyl)oxy)butanamido)ethyl)benzoic acid]: 178 nM; for `CC(C)[C@@H](OCc1cccc(C(F)F)c1)C(=O)N[C@@H](C)c1ccc(C(=O)O)cc1` [Example 14, 4-((S)-1-((R)-2-((3-(difluoromethyl)benzyl)oxy)-3-methylbutanamido)ethyl)benzoic acid]: 1.82 nM. On to `CC(C)[C@@H](OCc1ccccc1)C(=O)N[C@@H](C)c1ccc(C(=O)O)cc1` [Example 19, 4-((S)-1-((R)-2-(benzyloxy)-3-methylbutanamido)ethyl)benzoic acid], for which the Ki was 12.9 nM.

In the case of `CS(=O)(=O)c1cccc(COC(C(=O)NC2(c3ccc(C(=O)O)cc3)CC2)C2CCC2)c1` (centres unmarked) [Example 95, 4-(1-(2-cyclobutyl-2-((3-(methylsulfonyl)benzyl)oxy)acetamido)cyclopropyl)benzoic acid], the Ki is 79.4 nM. The same measure for `CC(C)[C@@H](OCc1ccc(Cl)c(F)c1)C(=O)NC1(c2ccc(C(=O)O)cc2)CC1` [Example 79]: 2.45 nM. The same measure for `CC(C)[C@@H](OCc1ccc(C(F)F)cn1)C(=O)N[C@@H](C)c1ccc(C(=O)O)cc1` [Example 34, 4-((S)-1-((R)-2-((5-(difluoromethyl)pyridin-2-yl)methoxy)-3-methylbutanamido)ethyl)benzoic acid]: 20.9 nM; for `C[C@H](NC(=O)C(OCc1ccc(C(F)(F)F)cc1)C1CCC1)c1ccc(C(=O)O)cc1` (single isomer, unassigned) [Example 93]: 3.63 nM. The same measure for `CC(C)[C@@H](OCc1cccc(C2CC2)c1)C(=O)NC1(c2ccc(C(=O)O)cc2)CC1` [Example 65, (R)-4-(1-(2-((3-cyclopropylbenzyl)oxy)-3-methylbutanamido)cyclopropyl)benzoic acid]: > 209 nM; for `CC(C)[C@@H](OCc1cc(OC(F)F)ccn1)C(=O)NC1(c2ccc(C(=O)O)cc2)CC1` [Example 68, (R)-4-(1-(2-((4-(difluoromethoxy)pyridin-2-yl)methoxy)-3-methylbutanamido)cyclopropyl)benzoic acid]: 0.562 nM. For the compound `CC(C)[C@@H](OCc1ccc(C(F)(F)F)cc1)C(=O)N[C@@H](C)c1ccc(C(=O)NS(C)(=O)=O)cc1` [Example 53, 4-((S)-1-((R)-3-methyl-2-((4-(trifluoromethyl)benzyl)oxy)butanamido)ethyl)-N-(methylsulfonyl)benzamide], the Ki was 64.6 nM. Regarding `O=C(O)c1ccc(C2(NC(=O)[C@@H](OCc3cccc(OC(F)F)c3)C3CCC3)CC2)cc1` [Example 100, (S)-4-(1-(2-cyclobutyl-2-((3-(difluoromethoxy)benzyl)oxy)acetamido)cyclopropyl)benzoic acid], the Ki is 15.5 nM. Regarding `CC(C)[C@@H](OCc1cccc(C2CC2)c1)C(=O)N[C@@H](C)c1ccc(C(=O)O)cc1` [Example 39, 4-((S)-1-((R)-2-((3-cyclopropylbenzyl)oxy)-3-methylbutanamido)ethyl)benzoic acid], the Ki is 0.229 nM. To `CC(C)[C@@H](OCc1cccc(S(=O)(=O)C2CC2)c1)C(=O)NC1(c2ccc(C(=O)O)cc2)CC1` [Example 91, (R)-4-(1-(2-((3-(cyclopropylsulfonyl)benzyl)oxy)-3-methylbutanamido)cyclopropyl)benzoic acid] belongs 20 nM. The same measure for `CC(C)[C@@H](OCc1cccc(OC(F)(F)F)c1)C(=O)N[C@@H](C)c1ccc(C(=O)O)cc1` [Example 20, 4-((S)-1-((R)-3-methyl-2-((3-(trifluoromethoxy)benzyl)oxy)butanamido)ethyl)benzoic acid]: 0.0955 nM. The same measure for `CCS(=O)(=O)c1cccc(CO[C@@H](C(=O)NC2(c3ccc(C(=O)O)cc3)CC2)C(C)C)c1` [Example 56, (R)-4-(1-(2-((3-(ethylsulfonyl)benzyl)oxy)-3-methylbutanamido)cyclopropyl)benzoic acid]: 7.24 nM; for `CC(C)C(OCc1cccc(C2COC2)c1)C(=O)NC1(c2ccc(C(=O)O)cc2)CC1` (single isomer, unassigned) [Example 86, 4-(1-(3-methyl-2-((3-(oxetan-3-yl)benzyl)oxy)butanamido)cyclopropyl)benzoic acid]: 0.447 nM; for `CC(C)[C@@H](OCc1ccc(F)c(F)c1)C(=O)NC1(c2ccc(C(=O)O)cc2)CC1` [Example 37, (R)-4-(1-(2-((3,4-difluorobenzyl)oxy)-3-methylbutanamido)cyclopropyl)benzoic acid]: 1.23 nM.

`CC(C)[C@@H](OCc1ccc(F)c(C2CC2)c1)C(=O)N[C@@H](C)c1ccc(C(=O)O)cc1` [Example 85, 4-((S)-1-((R)-2-((3-cyclopropyl-4-fluorobenzyl)oxy)-3-methylbutanamido)ethyl)benzoic acid]: the Ki is 0.055 nM.

On to `CC(C)[C@@H](OCc1cccc(C#N)c1)C(=O)N[C@@H](C)c1ccc(C(=O)O)cc1` [Example 22, 4-((S)-1-((R)-2-((3-cyanobenzyl)oxy)-3-methylbutanamido)ethyl)benzoic acid], for which the Ki was 7.24 nM. The same measure for `CC(C)[C@@H](OCc1cccc(Cl)c1)C(=O)NC1(c2ccc(C(=O)O)cc2)CC1` [Example 50, (R)-4-(1-(2-((3-chlorobenzyl)oxy)-3-methylbutanamido)cyclopropyl)benzoic acid]: > 12900 nM; for `CC(C)[C@@H](OCc1cccc(Cl)c1)C(=O)N[C@@H](C)c1ccc(C(=O)O)cc1` [Example 12, 4-((S)-1-((R)-2-((3-chlorobenzyl)oxy)-3-methylbutanamido)ethyl)benzoic acid]: 0.813 nM. To `CC(C)[C@H](OCc1ccc(S(C)(=O)=O)cc1)C(=O)N[C@@H](C)c1ccc(C(=O)O)cc1` [Example 9, 4-((S)-1-((S)-3-methyl-2-((4-(methylsulfonyl)benzyl)oxy)butanamido)ethyl)benzoic acid] belongs > 195 nM.
